Converted amounts (≈) assume the structure as drawn. Where two headings read alike, the source gives them in different places.
Assays:
[1] = test system: 22Rv1 prostate cancer cell; experiment: 22Rv1 prostate cancer cell proliferation; assay type: cell-based
[2] = Water-octanol partition co-efficient (log P), shaker method; assay type: physicochemical
Protocol: The water-octanol partition co-efficient (log P) of GMC1, a measure of how hydrophilic (“water-loving”) or hydrophobic (“water-fearing”) GMC1 is, was also evaluated using the shaker method.

[3] = Short-term (bench-top) stability of GMC1 plasma and urine samples; assay type: physicochemical, rat; details: read-out: Mean Recovery ± SD, short-term stability; for recovery at 2 h: bench-top 2 h; for recovery at 4 h: bench-top 4 h; for recovery at 6 h: bench-top 6 h
Protocol: The short-term (bench-top) stability of GMC1 plasma and urine samples was evaluated by analyzing three sets each of GMC1 plasma and urine samples freshly prepared and placed on the bench-top for 2, 4, and 6 h, respectively. All the samples were compared with freshly prepared samples of the same concentration.

[4] = test system: glucocorticoid receptor (GR); details: variety of cell lines; cited from earlier work
[5] = Pharmacokinetic study of the GMC1 co-solvent formulation, IV bolus; assay type: in vivo, male Sprague Dawley rats; details: rat, single 2 mg/kg IV bolus, three compartment model; for half-life / Vd: iv, 2 mg/kg
Protocol: Pharmacokinetic Studies of the GMC1 Co-Solvent Formulation. Pharmacokinetic study, which elucidates the fate of GMC1 in living systems, was performed. The pharmacokinetic study also verifies the applicability of the LC/MS/MS assay method and the formulation. A rat model was employed and male Sprague Dawley rats were selected as an animal model based on the similarity to humans in metabolism. Four male Sprague Dawley rats (body weight: 300-350 g) were cannulated through the jugular vein under anesthesia (using a cocktail of ketamine:acepromazine:xylazine at a ratio of 50:3.3:3.3 mg/kg). On the following day, the optimal co-solvent formulation of GMC1 (consisting of Labrasol® 50:50 PEG 300, and GMC1 10 mg/mL) was diluted ten times in normal saline to 1 mg/mL. Each rat was administered a 2 mg/kg IV bolus dose of GMC1. Heparinized blood samples were withdrawn from each rat at 5, 10, 15, 30, 60, 120, 240, 480, 720, 1440, 2880, 3240 min after injection. The blood samples were centrifuged at 14,000 rpm for 6 min and the supernatant plasma obtained and stored at −80° C. until analysis. Urine samples were also collected at 0, 60, 240, 480, 720, and 1440 min. The plasma and urine samples were analyzed (within 7 days) using the LC/MS/MS method described herein to obtain the concentration of GMC1.
The pharmacokinetic parameters for each rat were determined with Phoenix WinNonlin 6.3 software (Pharsight Corporation, Mountain View, Calif., USA) using a three compartment, which best described the fit for the IV bolus administration of GMC1, based on the observed and predicted fits of the plasma concentration versus time plot, the reduction in the sums of squares, and the Akaike's information criterion (AIC) for comparing compartmental models (Yamaoka et al., Journal of Pharmacokinetics and Biopharmaceutics 1978, 6(2):165-75). The three-compartment model is described by the equation: Ct=A·e^−αt+B·e^−βt+C·e^−γt where A, B and C are the coefficients, α, β, and γ are alpha, beta and gamma phase rate constants respectively, and Ct is the plasma concentration of GMC1 at time, t.
The weighting scheme of concentration^−2 (Y^−2) was used to determine the model that best fits the individual profiles.

[6] = Processed sample (on-instrument or auto-sampler) stability; assay type: physicochemical; details: rat
Protocol: The stability of processed samples (on-instrument or auto-sampler stability) was also evaluated by comparing freshly prepared plasma and urine QC samples to samples placed on the auto-sampler for 2, 4, and 6 h respectively. One set of the plasma and urine QC samples was extracted with methanol containing IS, and another set with pure methanol without IS.

[7] = Solubility of GMC1 in selected solvents by the shaker method; assay type: physicochemical; details: thermodynamic from solid, read-out: Mean Solubility ± SD
Protocol: Solubility information in various solvents is important in developing a suitable intravenous formulation of GMC1 for preclinical and clinical studies. The solubility of GMC1 in water, ethanol, polyethylene glycol 300 and 400, propylene glycol monocapryrate type I (Capyrol 90®), dimethyl sulfoxide (DMSO), dimethyl acetamide (DMA), Tween 80®, Labrasol®, Labrafac®, soybean oil, and oleic acid were determined by the shaker method. Briefly, excess amount of GMC1 was added to each of the selected solvents in a scintillation vial and shook using a reciprocating shaker at room temperature for 72 h. The samples were centrifuged at 14,000 rpm for 10 min and subsequently filtered through a 0.22 μm filtration unit, the resulting filtrate analyzed by LC/MS/MS to determine the GMC1 dissolved in the solvents. The study was conducted in triplicate.

androgen receptor (AR) = details: variety of cell lines; cited from earlier work
[8] = Freeze-thaw cycle stability of GMC1 plasma and urine samples; assay type: physicochemical, rat; details: read-out: Mean Recovery ± SD, freeze-thaw cycle stability
Protocol: The freeze-thaw cycle stability of GMC1 plasma and urine samples was evaluated by comparing QC plasma and urine samples exposed to three cycles of freeze (at −80° C.) and thaw (room temperature) to freshly prepared QC samples at the same concentration. Average recoveries from freeze-thawed plasma samples were 106±5.9%, 98.5±3.7% and 94.1±2.9% for GMC1 concentrations of 10, 200 and 400 ng/mL respectively. Average recovery from urine samples were 113±8.9%, 101±3.9%, and 86.6±7.5% for 10, 200 and 400 ng/mL GMC1 concentrations respectively.

[9] = processed plasma sample (methanol extract), plasma extracted with methanol containing IS, read-out: Mean Recovery ± SD, auto-sampler stability, With IS
[10] = processed plasma sample (methanol extract), plasma extracted with pure methanol, read-out: Mean Recovery ± SD, auto-sampler stability, No IS
[11] = processed urine sample (methanol extract), urine extracted with methanol containing IS, read-out: Mean Recovery ± SD, auto-sampler stability, With IS
[12] = processed urine sample (methanol extract), urine extracted with pure methanol, read-out: Mean Recovery ± SD, auto-sampler stability, No IS

For COc1ccc(/C=N/NC(=O)CSc2nc3ccccc3[nH]2)cc1 [GMC1], the “concentration range inhibiting cell proliferation” value [1] was “low micromolar”, the logP [2] was 3.48 ± 0.03 and the recovery at 2 h ([3]; rat plasma) was 97.4 ± 8.89%. For the same compound, the recovery at 4 h ([3]; rat plasma) was 88.9 ± 2.63%, the recovery at 6 h ([3]; rat plasma) was 80.1 ± 5.71% and the recovery at 2 h ([3]; rat urine) was 94.2 ± 4.66%. For the same compound, the recovery at 4 h ([3]; rat urine) was 93.9 ± 0.76%, the recovery at 6 h ([3]; rat urine) was 93.7 ± 1.23% and the “concentration range inhibiting receptor activity” value [4] was “low to mid micro-molar”. The AUC(0-inf) ([5]; male, Sprague Dawley, plasma) was 3900 ng·h/mL, the Cmax ([5]; male, Sprague Dawley, plasma) was 7640 ± 1980 ng/mL and the clearance ([5]; male, Sprague Dawley, plasma, read-out: Cl (total body clearance)) was 8.9 ± 1.66 mL/min/kg. For the same compound, the half-life ([5]; male, Sprague Dawley, plasma, read-out: T1/2α (distribution half-life of α-phase)) was 0.11 ± 0.036 h, the half-life ([5]; male, Sprague Dawley, plasma, read-out: T1/2β (elimination half-life of β-phase)) was 1.23 ± 0.42 h and the half-life ([5]; male, Sprague Dawley, plasma, read-out: T1/2γ (elimination half-life of γ-phase)) was 19.7 ± 5.09 h. The Vd ([5]; male, Sprague Dawley, plasma, read-out: V1 (volume of distribution of central compartment)) was 0.278 ± 0.0642 L/kg, the Vd ([5]; male, Sprague Dawley, plasma, read-out: Vss (volume of distribution at steady state)) was 7.73 ± 1.22 L/kg and the “A (coefficient of α-phase)” value [5] was 6528.9 ± 1996.01 ng/mL. The “B (coefficient of β-phase)” value [5] was 1038.5 ± 546.09 ng/mL, the “C (coefficient of γ-phase)” value [5] was 75.1 ± 20.24 ng/mL and the “V2 (volume of distribution of first peripheral compartment)” value [5] was 0.5595 ± 0.20603 L/kg. The “V3 (volume of distribution of second peripheral compartment)” value [5] was 6.8665 ± 1.11754 L/kg, the recovery at 2 h [6, 9] was 89.9 ± 4.7% and the recovery at 4 h [6, 9] was 97.5 ± 1.5%. For the same compound, the recovery at 6 h [6, 9] was 96.2 ± 5.6%, the recovery at 2 h [6, 10] was 94.7 ± 7.9% and the recovery at 4 h [6, 10] was 99.7 ± 4.5%. The recovery at 6 h [6, 10] was 98.4 ± 6.2%, the recovery at 2 h [6, 11] was 96.4 ± 2.8% and the recovery at 4 h [6, 11] was 98.5 ± 1.1%. The recovery at 6 h [6, 11] was 97.1 ± 4.8%, the recovery at 2 h [6, 12] was 96.1 ± 2.4% and the recovery at 4 h [6, 12] was 89.7 ± 8.8%. For the same compound, the recovery at 6 h [6, 12] was 95.2 ± 2.2%, the solubility at 72 h ([7]; DMSO, organic solvent or mixture, DMSO, room temperature) was at least 100 mg/mL and the solubility at 72 h ([7]; Labrafac, oil or lipid, Labrafac, room temperature) was 1.2 ± 0.01 mg/mL (≈ 3.53 mM). For the same compound, the solubility at 72 h ([7]; Labrasol, aqueous with cosolvent or surfactant or cyclodextrin, Labrasol, room temperature) was 36.4 ± 2.9 mg/mL (≈ 107 mM), the solubility at 72 h ([7]; PEG 300, organic solvent or mixture, PEG 300, room temperature) was 36.6 ± 1.12 mg/mL (≈ 108 mM) and the solubility at 72 h ([7]; PEG 400, organic solvent or mixture, PEG 400, room temperature) was 35.7 ± 1.41 mg/mL (≈ 105 mM). For the same compound, the solubility at 72 h ([7]; Tween 80, aqueous with cosolvent or surfactant or cyclodextrin, Tween 80, room temperature) was 20.3 ± 5.39 mg/mL (≈ 59.6 mM), the solubility at 72 h ([7]; dimethyl acetamide, organic solvent or mixture, Dimethyl acetamide, room temperature) was at least 100 mg/mL and the solubility at 72 h ([7]; ethanol, organic solvent or mixture, Ethanol, room temperature) was 6.3 ± 0.29 mg/mL (≈ 18.5 mM). For the same compound, the solubility at 72 h ([7]; oleic acid, oil or lipid, Oleic Acid, room temperature) was 2.2 ± 0.02 mg/mL (≈ 6.46 mM), the solubility at 72 h ([7]; soybean oil, oil or lipid, Soy bean oil, room temperature) was 1.1 ± 0.02 mg/mL (≈ 3.23 mM) and the “concentration range inhibiting receptor activity” value (androgen receptor (AR)) was “low to mid micro-molar”. It also gave a recovery at 10 ng/mL ([8]; rat plasma, three cycles −80° C./room temperature) of 106 ± 5.9%, a recovery at 200 ng/mL ([8]; rat plasma, three cycles) of 98.5 ± 3.7% and a recovery at 400 ng/mL ([8]; rat plasma, three cycles) of 94.1 ± 2.9%. It also gave a recovery at 10 ng/mL ([8]; rat urine, three cycles) of 113 ± 8.9%, a recovery at 200 ng/mL ([8]; rat urine, three cycles) of 101 ± 3.9% and a recovery at 400 ng/mL ([8]; rat urine, three cycles) of 86.6 ± 7.5%.

— patent US10010534B2, “Intravenous formulation and LC/MS/MS analysis method for GMC1” (THE BOARD OF REGENTS OF THE UNIVERSITY OF TEXAS SYSTEM, priority 2016, dated 2018)
